Source: patent publication US20250108100A1, “C-TERMINAL FRAGMENT OF APOLIPOPROTEIN E AND APPLICATION THEREOF IN INHIBITING y-SECRETASE ACTIVITY” (SYNPHATEC (SHANGHAI) BIOPHARMACEUTICAL TECHNOLOGY CO., LTD., priority 2022, published 2025)
“Also recorded” adds a separate entry of the source.

Assays:
[1] = test system: human APP co-expressed in HEK 293T cells; assay: α-CTF produced by APP co-expressed in HEK 293T cells (Western blot); format: cell-based; conditions: for α-CTF produced by co-expressed APP: Western blot, vs GFP control
Method: • a) A plasmid expressing the target protein in mammalian cells was constructed, and the protein expression promoter is CAG. • b) The target protein was expressed in HEK 293T cell line. Cells were subcultured one day before transfection, and transfection was performed when the degree of cell adhesion reached 70%-80%. The transfection reagent was lipofectamine2000 (ThermoFisher). • c) 4-6 hours post transfection, the medium were replaced with fresh cell culture medium. • d) 36-48 hours post transfection, the cells were lysed (10% 1M tris-HCl (pH=6.8), 4% SDS, 20% glycerol, 0.01% bromophenol blue), and the protein samples were collected and used for Western blot or stored in a −80° C. freezer. • e) Polyacrylamide gel electrophoresis. Before protein loading, the protein was boiled at 98° C. for 10 min, and then centrifuged at 12000 rpm for 10 min. Electrophoresis: 80V for the upper stacking gel; 120V for the lower separating gel. • f) Protein transfer. The filter paper was soaked in the electrophoresis solution before use, and the PVDF membrane was put in methanol for 10s to activate, and the gel after electrophoresis was taken out from the electrophoresis tank, put in the order of filter paper—PVD membrane—gel-filter paper from bottom to top, and they were put into the transfer instrument, with transferring in constant current at 0.1 A for 70 min. • g) Blocking and antibody incubation: the transferred PVDF membrane was placed in 5% BSA/TBST blocking solution, and blocked on a shaker at room temperature for 1 hour. The primary antibody was used to incubate at 4° C. overnight on a shaker (12-16 h); 1×TBST was used to wash three times, once every 10 minutes; the secondary antibody was used to incubate, shaked at room temperature for 1-2 h; 1×TBST was used to wash three times, once every 10 minutes. • h) Imaging by development: development was performed with ECL chemiluminescence hypersensitive chromogenic reagent.
(§1) Plasmids were transfected in HEK 293T or N2A cells for 36-48 hours and then lysed in cell lysis buffer [10% 1M tris-HCl (pH=6.8), 4% SDS, 20% glycerol, 0.01% bromophenol blue]. Lysates were shaken at room temperature for 10 min, then boiled for 10 min, and centrifuged at 12,000×g for 10 min. Proteins were run on 8% or 12% Tris-glycine SDS-PAGE and transferred to PVDF membranes (Life Technologies). Samples were incubated overnight at 4° C. with primary antibody diluted in 5% BSA buffer (in 1×TBST). After washing 3 times with 1×TBST, they were incubated with secondary antibody diluted in 5% BSA buffer (in 1×TBST) for 2 hours at room temperature. Finally, after washing 3 times with 1×TBST, the signal was detected by ECL Western blotting substrate (Solarbio, PE0010).
(§2) Data were analyzed by GraphPad Prism software (v6) using unpaired, paired, or one-sample t-tests. Aβ40 and Aβ42 levels were normalized to the corresponding GFP controls. α-CTF levels were normalized to FL-APP and corresponding GFP controls. All data are represented as mean±SEM. Statistical significance was defined as p<0.05. One, two, three and four stars (*) in the graph indicate p-values <0.05, <0.01, <0.001 and <0.0001, respectively.

[2] = test system: human APP and β-secretase co-expressed in HEK 293T cells; assay: HEK 293T cells co-expressing APP and β-secretase (BACE1): Aβ ELISA and β-CTF Western blot; format: cell-based; conditions: APP and β-secretase co-expressed, ELISA, vs GFP control
Method: The experiment was performed according to the standard procedure in the ELISA analysis kit of Invitrogen Company. • a) The target protein was expressed in HEK 293T cell line. Cells were subcultured one day before transfection, and transfection was performed when the degree of cell adhesion reached 70%-80%. The transfection reagent was lipofectamine2000 (ThermoFisher). • b) 4-6 hours post transfection, medium were replaced with fresh cell culture medium. • c) 36-48 hours post transfection, the cell culture medium was collected, and then the ELISA process was performed or the cell culture medium was frozen in a −80° C. refrigerator. • d) 50 μl of standard samples and experimental samples were added to each well of the 96-well plate. • e) 50 μl of human-derived Aβ40 or Aβ42 or mouse-derived Aβ40 detection antibody was added to each well of the 96-well plate. • f) The above samples were shaken gently and placed at room temperature for 3 hours. • g) The liquid in the well were removed, and the plate was washed 4 times with 1× wash buffer. • h) 100 μl of the buffer containing 1× anti-Rabbit IgG HRP was added. • i) The plate was shaken gently and placed at room temperature for […]. • j) The liquid in the well were removed, and the well was washed 4 times with 1× wash buffer. • k) 100 μl of Stabilized Chromogen was added to each well, and the plate was placed in the dark for 30 minutes at room temperature. • l) 100 μl of Stop Solution was added to each well. • m) The absorbance at 450 nm was measured with a microplate reader. 2.4 qRT-PCR
48 hours after transfection of HEK 293T cells and N2A cells, or 4.5 days after lentivirus infection of neurons, media and lysates were collected. Aβ40 and Aβ42 in the culture medium and cell lysates were detected by an Aβ ELISA kit as indicated in the protocol. (Invitrogen Technology; KHB3481 for human Aβ40, KHB3441 for human Aβ42 and KMB3481 for mouse Aβ40).
as §2

[3] = test system: APP co-expressed in mouse neuron cell line N2A; assay: α-CTF produced by APP co-expressed in N2A cells (Western blot); format: cell-based; conditions: Western blot, vs GFP control
Method: as §1, §2

[4] = test system: γ-secretase (PS1, PS2) knockout HEK 293T cells; assay: PS1 KO, PS2 KO and PS1/2 dKO HEK 293T cell lines: α-CTF and Aβ40; format: cell-based, human; conditions: PS1 single knockout HEK 293T cells
Method: (§3) • a) A plasmid expressing the target protein in mammalian cells was constructed, and the protein expression promoter is CAG. • b) The target protein was expressed in HEK 293T cell line. Cells were subcultured one day before transfection, and transfection was performed when the degree of cell adhesion reached 70%-80%. The transfection reagent was lipofectamine2000 (ThermoFisher). • c) 4-6 hours post transfection, the medium were replaced with fresh cell culture medium. • d) 36-48 hours post transfection, the cells were lysed (10% 1M tris-HCl (pH=6.8), 4% SDS, 20% glycerol, 0.01% bromophenol blue), and the protein samples were collected and used for Western blot or stored in a −80° C. freezer. • e) Polyacrylamide gel electrophoresis. Before protein loading, the protein was boiled at 98° C. for 10 min, and then centrifuged at 12000 rpm for 10 min. Electrophoresis: 80V for the upper stacking gel; 120V for the lower separating gel. • f) Protein transfer. […]

human γ-secretase = target: T1, human γ-secretase (Homo sapiens, UniProt P49768); assay: Purified system: cleavage of purified β-CTF by purified γ-secretase to Aβ40 (ELISA); format: biochemical
T1 construct: full-length PS1, FL-PS1; N-terminal fragment of PS1, PS1 NTF; C-terminal fragment of PS1, PS1 CTF; made in house; host or cells: HEK 293T

APLP1 = assay: γ-cleavage of APLP1 expressed in HEK 293T cells (Western blot); format: cell-based; conditions: PF03084014 at 1 μM
Method: as §3
Plasmids were transfected in HEK 293T or N2A cells for 36-48 hours and then lysed in cell lysis buffer [10% 1M tris-HCl (pH=6.8), 4% SDS, 20% glycerol, 0.01% bromophenol blue]. […] Finally, after washing 3 times with 1×TBST, the signal was detected by ECL Western blotting substrate (Solarbio, PE0010).

N100 (NOTCH fragment) = assay: γ-cleavage of NOTCH fragment N100 in HEK 293T cells co-expressing γ-secretase (Western blot); format: cell-based; conditions: N100-V5 and γ-secretase, PF03084014 at 1 uM
Method: as §1

[5] = test system: endogenously expressed APP in primary cultured mouse neurons; assay: APP metabolite ~14 kD CTF in primary cultured mouse neurons (Western blot); format: cell-based; conditions: PF03084014 at 1 uM
APP = assay: APEX2 proximity labeling between ApoE and APP in HEK 293T cells; format: binding, human; conditions: co-expressed in HEK 293T cells
APP, sequence (P05067 672-770 limits assumed): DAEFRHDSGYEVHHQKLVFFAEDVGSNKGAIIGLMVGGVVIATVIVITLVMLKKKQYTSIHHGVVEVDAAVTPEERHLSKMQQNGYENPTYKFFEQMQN
Method: (§4) A method for detecting protein interactions in living cells by targeting APEX2 was applied as previously described (Hung et al., 2016). Approximately 30 hours after transfection with APEX2 plasmids via Lipofectamine2000 (Invitrogen Technology), HEK 293T cells were incubated in 1 ml of complete medium with or without 250 uM biotinphenol (BP) for 30 minutes at 37° C. Cells were treated with 1 mM H2O2 for 1 min and cells were washed 3 times in quencher solution (10 mM sodium ascorbate, 5 mM Trolox and 10 mM sodium azide solution in 1×DPBS). Cells were lysed in RIPA lysis buffer (1× protein inhibitor cocktail, 1 mM PMSF and 10 mM sodium ascorbate, 5 mM Trolox and 10 mM sodium azide). The lysate was sonicated and centrifuged on ice (12,000×g, 4° C., 10 min), and the supernatant was incubated with streptavidin magnetic beads overnight at 4° C. The beads were collected using a magnetic rack and washed with a series of buffers (twice with RIPA buffer, once with 1M KCl, once with 0.1M Na2CO3, twice with 2 M urea in 10 mM Tris-HCl, pH 8.0, and twice with RIPA lysis buffer. Biotinylated proteins were eluted from the beads by boiling each sample in loading buffer comprising 2 mM biotin and 20 mM DTT for 10 min, and the eluates were collected. Samples proceed to Western blot.

[6] = test system: endogenously expressed APP; assay: APEX2 proximity labeling of endogenous APP in primary cultured neurons; format: binding; conditions: primary cultured rat neurons
ADAM10 (α-secretase) = target: T2, ADAM10 (α-secretase) (Homo sapiens, UniProt O14672); assay: ApoE2-APEX2 proximity labeling of co-expressed ADAM10 in HEK 293T cells; format: binding
T2 construct: expressed in transfected cells; host or cells: HEK 293T
T2 sequence (O14672 214-748): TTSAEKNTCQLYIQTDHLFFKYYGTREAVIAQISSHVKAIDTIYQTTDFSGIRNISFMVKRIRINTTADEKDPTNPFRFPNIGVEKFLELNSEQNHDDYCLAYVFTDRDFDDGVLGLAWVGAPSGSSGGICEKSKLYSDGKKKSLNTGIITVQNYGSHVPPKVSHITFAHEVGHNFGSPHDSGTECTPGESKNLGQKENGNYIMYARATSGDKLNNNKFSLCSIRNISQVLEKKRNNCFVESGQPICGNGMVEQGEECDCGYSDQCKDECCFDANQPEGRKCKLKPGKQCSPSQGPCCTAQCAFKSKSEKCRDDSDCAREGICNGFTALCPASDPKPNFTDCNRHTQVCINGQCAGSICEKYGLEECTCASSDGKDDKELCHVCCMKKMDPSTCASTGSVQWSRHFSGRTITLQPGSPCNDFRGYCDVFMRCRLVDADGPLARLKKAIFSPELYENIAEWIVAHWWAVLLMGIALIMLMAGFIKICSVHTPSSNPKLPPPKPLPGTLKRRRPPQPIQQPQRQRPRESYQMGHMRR
Method: as §4

PS2 = target: T3, PS2 (Homo sapiens, UniProt P49810); assay: ApoE2-APEX2 proximity labeling of co-expressed PS2 in HEK 293T cells; format: binding
T3 construct: expressed in transfected cells; host or cells: HEK 293T
Method: as §4

Molecule: ApoE3: human apolipoprotein E3, full-length 299 amino acid residues, SEQ ID NO: 89
- α-CTF produced by co-expressed APP [1]: can significantly increase α-CTF; also recorded: significantly increased the α-CTF levels
- production of Aβ40 [2]: have no such effect
- α-CTF produced by co-expressed APP [3]: significantly increased the α-CTF levels

Molecule: CCC[C@H](N[C@H]1CCc2cc(F)cc(F)c2C1)C(=O)Nc1cn(C(C)(C)CNCC(C)(C)C)cn1 [PF03084014]
- α-CTF produced by APP co-expressed with PS1 ([1]; APP and PS1 co-expressed, PF03084014 at 1 μM): significantly increases α-CTF; also recorded: can increase the production of α-CTF; also recorded: also increases α-CTF
- α-CTF in PS1 KO cells [4]: further increased α-CTF levels
- generation of Aβ by γ-secretase and β-CTF (human γ-secretase; 10 μM inhibitor): can inhibit the generation of Aβ; also recorded: can be inhibited
- Aβ40 produced by incubation of γ-secretase with β-CTF (human γ-secretase; Example 2, legend b49: 1 uM inhibitor): complete blocked
- α-like CTF of APLP1 (APLP1): significantly increase the α-like CTF; also recorded: enhancing its cleavage product; also recorded: increased the α-like CTF
- γ-secretase-dependent reduction of N100 (N100 (NOTCH fragment)): reversed this reduction
- level of ~14 kD CTF (CTF141D) produced by APP metabolism [5]: significantly increased

Molecule: ApoE4: human ApoE isoform ApoE4 (Arg112; Arg158)
- α-CTF produced by co-expressed APP [1]: cannot significantly change α-CTF
- production of Aβ40 [2]: have no such effect; also recorded: failed to alter
- α-CTF produced by co-expressed APP [3]: failed to alter α-CTF levels

Molecule: ApoA1: another apolipoprotein co-expressed with APP, apolipoprotein A1
- α-CTF produced by co-expressed APP [1]: failed to alter the levels of α-CTF
- production of Aβ40 [2]: failed to alter

Molecule: CNC(=O)[C@@H](NC(=O)[C@H](CCCc1ccccc1)[C@H](C)N(O)C=O)C(C)(C)C [GI254023X, reference compound]
- α-CTF level after ADAM10 inhibitor ([1]; 1 μM): about 45%

Molecule: ApoE2-APEX2: ApoE2 fused to APEX2 (ascorbate peroxidase 2) for proximity labeling
- biotinylation of FL-APP and α-CTF (APP): could also be biotinylated
- biotinylation of endogenously expressed APP [6]: biotinylates
- biotinylation of co-expressed ADAM10 (ADAM10 (α-secretase)): biotinylated
- biotinylation of co-expressed PS2 (PS2): biotinylated

Molecule: ApoE2-V5: ApoE2 with tag protein V5 (SEQ ID NO: 82) at C-terminal
- α-CTF produced by co-expressed APP [1]: can significantly increase the α-CTF

Molecule: CT ND3CD25: SEQ ID NO: 32; ApoE CT minus 3 N-terminal and 25 C-terminal residues (EEMGSRTRDRLDEVKEQVAEVRAKLEEQAQQIRLQAEAFQARLKSWFEPLVEDMQR)
- production of Aβ40 [2]: can still significantly reduce Aβ40

Molecule: V5-ApoE2: ApoE2 with tag protein V5 (SEQ ID NO: 82) at N-terminal
- α-CTF produced by co-expressed APP [1]: can significantly increase the α-CTF
